From patent publication US6914045B2, “Glycopeptide antibiotics” (Wyeth Holdings Corporation, priority 2001, dated 2005)
≈ marks a conversion by molar mass, not a printed value.

Key:
Test in all cases: in vitro antibacterial evaluation, MIC by broth dilution
Type in all cases: cell-based
[1] = system: Staphylococcus sp.; conditions: broth dilution, 18 hours at 35° C.
Method in brief: (§1)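 Inoculum 5×10^5 CFU/mL; concentrations 64 to 0.06 μg/mL; MIC defined as lowest inhibitory level. Conducted by broth dilution under NCCLS guidelines.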

[2] = system: Enterococcus sp.; conditions: broth dilution, 18 hours at 35° C.
Method in brief: as §1

[3] = system: Streptococcus sp.; conditions: broth dilution, 18 hours at 35° C.
Method in brief: as §1

[4] = system: Escherichia coli; conditions: 18 hours at 35° C.

COc1ccc(COCC2OC(OC3C(CO)OC(Oc4ccc(CC5NC(=O)C(C(C)c6ccccc6)NC(=O)CNC(=O)C(CO)NC(=O)C(C(O)C6CNC(=N)N6C6OC(CO)C(O)C(O)C6O)NC(=O)C(C(O)C6CNC(=N)N6)NC5=O)cc4)C(O)C3O)C(O)C(O)C2O)cc1F (stereo not shown) [Example 237]
MIC Coagulase Negative Staphylococcus (GC 4547) [1]: 2 µg/mL (≈ 1.4 µM)
MIC Coagulase Negative Staphylococcus (GC 4548) [1]: 1 µg/mL (≈ 0.698 µM)
MIC Coagulase Negative Staphylococcus (GC 4549) [1]: 1 µg/mL (≈ 0.698 µM)
MIC Coagulase Negative Staphylococcus (GC 4551) [1]: 4 µg/mL (≈ 2.79 µM)
MIC Coagulase Negative Staphylococcus (GC 6257) [1]: 1 µg/mL (≈ 0.698 µM)
MIC Staphylococcus aureus (ATCC 29213) [1]: 4 µg/mL (≈ 2.79 µM)
MIC Staphylococcus aureus (GC 1131) [1]: 4 µg/mL (≈ 2.79 µM)
MIC Staphylococcus aureus (GC 3051) [1]: 2 µg/mL (≈ 1.4 µM)
MIC Staphylococcus aureus (GC 3053) [1]: 4 µg/mL (≈ 2.79 µM)
MIC Staphylococcus aureus (GC 4541) [1]: 2 µg/mL (≈ 1.4 µM)
MIC Staphylococcus aureus (GC 4542) [1]: 8 µg/mL (≈ 5.58 µM)
MIC Staphylococcus aureus (GC 4544) [1]: 4 µg/mL (≈ 2.79 µM)
MIC Staphylococcus aureus (GC 4545) [1]: 2 µg/mL (≈ 1.4 µM)
MIC Staphylococcus aureus-SMITH (GC 4543) [1]: 2 µg/mL (≈ 1.4 µM)
MIC Staphylococcus haemolyticus (GC 4546) [1]: 1 µg/mL (≈ 0.698 µM)
MIC Staphylococcus aureus (ATCC 29213) ([1]; strain ATCC 29213): 4 µg/mL (≈ 2.79 µM)
MIC Staphylococcus aureus (GC 1131) ([1]; strain GC 1131): 4 µg/mL (≈ 2.79 µM)
MIC Staphylococcus aureus (GC 3051) ([1]; strain GC 3051): 2 µg/mL (≈ 1.4 µM)
MIC Staphylococcus aureus (GC 3053) ([1]; strain GC 3053): 4 µg/mL (≈ 2.79 µM)
MIC Staphylococcus aureus (GC 4541) ([1]; strain GC 4541): 2 µg/mL (≈ 1.4 µM)
MIC Staphylococcus aureus (GC 4542) ([1]; strain GC 4542): 8 µg/mL (≈ 5.58 µM)
MIC Staphylococcus aureus-SMITH (GC 4543) ([1]; strain GC 4543): 2 µg/mL (≈ 1.4 µM)
MIC Staphylococcus aureus (GC 4544) ([1]; strain GC 4544): 4 µg/mL (≈ 2.79 µM)
MIC Staphylococcus aureus (GC 4545) ([1]; strain GC 4545): 2 µg/mL (≈ 1.4 µM)
MIC Staphylococcus haemolyticus (GC 4546) ([1]; strain GC 4546): 1 µg/mL (≈ 0.698 µM)
MIC Coagulase Negative Staphylococcus (GC 4547) ([1]; strain GC 4547): 2 µg/mL (≈ 1.4 µM)
MIC Coagulase Negative Staphylococcus (GC 4548) ([1]; strain GC 4548): 1 µg/mL (≈ 0.698 µM)
MIC Coagulase Negative Staphylococcus (GC 4549) ([1]; strain GC 4549): 1 µg/mL (≈ 0.698 µM)
MIC Coagulase Negative Staphylococcus (GC 4551) ([1]; strain GC 4551): 4 µg/mL (≈ 2.79 µM)
MIC Coagulase Negative Staphylococcus (GC 6257) ([1]; strain GC 6257): 1 µg/mL (≈ 0.698 µM)
MIC Enterococcus avium (GC 4558) [2]: 16 µg/mL (≈ 11.2 µM)
MIC Enterococcus faecalis (ATCC 29212) [2]: 16 µg/mL (≈ 11.2 µM)
MIC Enterococcus faecalis (GC 2242) [2]: 16 µg/mL (≈ 11.2 µM)
MIC Enterococcus faecalis (GC 2691) [2]: 16 µg/mL (≈ 11.2 µM)
MIC Enterococcus faecalis (GC 3059) [2]: 32 µg/mL (≈ 22.3 µM)
MIC Enterococcus faecalis (GC 4552) [2]: 16 µg/mL (≈ 11.2 µM)
MIC Enterococcus faecalis (GC 4553) [2]: 16 µg/mL (≈ 11.2 µM)
MIC Enterococcus faecalis (GC 4554) [2]: 32 µg/mL (≈ 22.3 µM)
MIC Enterococcus faecalis (GC 6189) [2]: 16 µg/mL (≈ 11.2 µM)
MIC Enterococcus faecium (GC 2243) [2]: 16 µg/mL (≈ 11.2 µM)
MIC Enterococcus faecium (GC 4556) [2]: 16 µg/mL (≈ 11.2 µM)
MIC Enterococcus faecium (GC 4557) [2]: 4 µg/mL (≈ 2.79 µM)
MIC Enterococcus faecalis (ATCC 29212) ([2]; strain ATCC 29212): 16 µg/mL (≈ 11.2 µM)
MIC Enterococcus faecium (GC 2243) ([2]; strain GC 2243): 16 µg/mL (≈ 11.2 µM)
MIC Enterococcus faecalis (GC 4552) ([2]; strain GC 4552): 16 µg/mL (≈ 11.2 µM)
MIC Enterococcus faecalis (GC 4553) ([2]; strain GC 4553): 16 µg/mL (≈ 11.2 µM)
MIC Enterococcus faecalis (GC 4554) ([2]; strain GC 4554): 32 µg/mL (≈ 22.3 µM)
MIC Enterococcus faecium (GC 4556) ([2]; strain GC 4556): 16 µg/mL (≈ 11.2 µM)
MIC Enterococcus faecium (GC 4557) ([2]; strain GC 4557): 4 µg/mL (≈ 2.79 µM)
MIC Enterococcus avium (GC 4558) ([2]; strain GC 4558): 16 µg/mL (≈ 11.2 µM)
MIC Enterococcus faecalis (GC 6189) ([2]; strain GC 6189): 16 µg/mL (≈ 11.2 µM)
MIC Enterococcus faecalis (GC 2242) ([2]; inoculum 5×10^5 CFU/mL, strain GC 2242): 16 µg/mL (≈ 11.2 µM)
MIC Enterococcus faecalis (GC 2691) ([2]; inoculum 5×10^5 CFU/mL, strain GC 2691): 16 µg/mL (≈ 11.2 µM)
MIC Enterococcus faecalis (GC 3059) ([2]; inoculum 5×10^5 CFU/mL, strain GC 3059): 32 µg/mL (≈ 22.3 µM)
MIC Streptococcus agalactiae (GC 4564) [3]: 2 µg/mL (≈ 1.4 µM)
MIC Streptococcus pneumoniae (ATCC 6301) [3]: 0.5 µg/mL (≈ 0.349 µM)
MIC Streptococcus pneumoniae (GC 1894) [3]: 0.25 µg/mL (≈ 0.174 µM)
MIC Streptococcus pneumoniae (GC 4565) [3]: 0.5 µg/mL (≈ 0.349 µM)
MIC Streptococcus pyogenes (GC 4563) [3]: 1 µg/mL (≈ 0.698 µM)
MIC Streptococcus pneumoniae (ATCC 6301) ([3]; inoculum 5×10^5 CFU/mL, strain ATCC 6301): 0.5 µg/mL (≈ 0.349 µM)
MIC Streptococcus pneumoniae (GC 1894) ([3]; inoculum 5×10^5 CFU/mL, strain GC 1894): 0.25 µg/mL (≈ 0.174 µM)
MIC Streptococcus pyogenes (GC 4563) ([3]; inoculum 5×10^5 CFU/mL, strain GC 4563): 1 µg/mL (≈ 0.698 µM)
MIC Streptococcus agalactiae (GC 4564) ([3]; inoculum 5×10^5 CFU/mL, strain GC 4564): 2 µg/mL (≈ 1.4 µM)
MIC Streptococcus pneumoniae (GC 4565) ([3]; inoculum 5×10^5 CFU/mL, strain GC 4565): 0.5 µg/mL (≈ 0.349 µM)
MIC Escherichia coli (ATCC 25922) [4]: 64 µg/mL (≈ 44.6 µM)
MIC Escherichia coli (GC 4559) [4]: 64 µg/mL (≈ 44.6 µM)
MIC Escherichia coli (GC 4560) [4]: 1 µg/mL (≈ 0.698 µM)
